Experimental data as given in patent publication US6599937B1, “Unsaturated oxyalkylene esters and uses thereof” (Beacon Laboratories, Inc., priority 1997, dated 2003).
Where two headings read alike, the source gives them in different places.

What was measured:
LOX IMVI = assay: SRB assay, inhibition of cancer cell proliferation, LOX IMVI; format: cell-based
Method: (§1) The inhibition of cell proliferation was measured in the indicated cancer cell lines using the sulforhodamine B (SRB) assay as described by Monks et al., 1991, J. Natl. Can. Inst. 83:757-766. The SRB assay is used to screen for anti-cancer drugs. […] The table provides the dosage of each compound (in mM) which inhibited fifty percent (IC50) or ninety percent (IC90) of proliferation when calculated using the Chou Analysis' Median Effective Dose equation.

HT29 = assay: SRB assay, inhibition of cancer cell proliferation, HT29; format: cell-based
Method: as §1

HL-60 cells = HL-60 cells cultured 3 days
Method: Cancer cell differentiation was evaluated in a human leukemia cell line by changes in expression of myelocytic maturation marker CD11b. The level of CD11b was measured on HL-60 cells by flow cytometry using a monoclonal antibody (MAb) against CD11b in a standard indirect immunofluorescence assay. Cells were cultured for 3 days with media or the indicated concentration of DiMeOCOMB. Cultured cells were collected by centrifugation, resuspended at 10^6 cells per 20μ RPMI+10% FCS and incubated with MAb for 30 min at […]. The cells were washed twice in cold PBS+[…] FCS and incubated with a 1:20 dilution of FITC-conjugated F(ab′)^2 fragment of rabbit anti-mouse IgG for 20-30 min at […]. in the dark. After washing the cells twice in cold PBS+10% FCS, the flow cytometry was performed.

NCI-H522 = assay: SRB assay, inhibition of cancer cell proliferation, NCI-H522; format: cell-based
Method: as §1

HL-60 = assay: SRB assay, inhibition of cancer cell proliferation, HL-60; format: cell-based, human
Method: (§2) Human promyelocytic leukemia cells (HL-60), human pancreatic carcinoma cells (PaCa-2) and human breast adenocarcinoma cells, pleural effusion cells (MCF-7) can be cultured as follows. Cells are grown in RPMI media with 10% FCS, supplemented with 2 mM glutamine and incubated at 37° C. in a humidified 5% CO2 incubator. Alternatively, cells can be grown in any other appropriate growth medium and conditions which supports the growth of the cell line under investigation. Viability can be determined by trypan blue exclusion. Cells are exposed to a test compound, cultures are harvested at various time points following treatment and stained with trypan blue. The inhibition of cell proliferation was measured in the indicated cancer cell lines using the sulforhodamine B (SRB) assay as described by Monks et al., 1991, J. Natl. Can. Inst. 83:757-766. The SRB assay is used to screen for anti-cancer drugs. […] The table provides the dosage of each compound (in mM) which inhibited fifty percent (IC50) or ninety percent (IC90) of proliferation when calculated using the Chou Analysis' Median Effective Dose equation.

MCF7 = assay: SRB assay, inhibition of cancer cell proliferation, MCF7; format: cell-based, human
Method: as §2

OVCAR-5 = assay: SRB assay, inhibition of cancer cell proliferation, OVCAR-5; format: cell-based
Method: as §1

SF-295 = assay: SRB assay, inhibition of cancer cell proliferation, SF-295; format: cell-based
Method: as §1

PC-3 = assay: SRB assay, inhibition of cancer cell proliferation, PC-3; format: cell-based, human
Method: as §1

CFPAC = assay: SRB assay, inhibition of cancer cell proliferation, CFPAC; format: cell-based
Method: as §1

NCI-H23 = assay: SRB assay, inhibition of cancer cell proliferation, NCI-H23; format: cell-based
Method: as §1

[1] = CFPAC cell line, SRB assay, Chou Median Effective Dose equation, read-out: IC50
[2] = CFPAC cell line, SRB assay, Chou Median Effective Dose equation, read-out: IC90
[3] = Homo sapiens, LOX IMVI cell line, SRB assay, Chou Median Effective Dose equation, read-out: IC50
[4] = Homo sapiens, LOX IMVI cell line, SRB assay, Chou Median Effective Dose equation, read-out: IC90
[5] = Homo sapiens, HT-29, HT29 cell line, SRB assay, Chou Median Effective Dose equation, read-out: IC50
[6] = Homo sapiens, HT-29, HT29 cell line, SRB assay, Chou Median Effective Dose equation, read-out: IC90
[7] = Homo sapiens, NCI-H522 cell line, SRB assay, Chou Median Effective Dose equation, read-out: IC50
[8] = Homo sapiens, NCI-H522 cell line, SRB assay, Chou Median Effective Dose equation, read-out: IC90
[9] = Homo sapiens, HL-60 cell line, SRB assay, Chou Median Effective Dose equation, read-out: IC50
[10] = Homo sapiens, HL-60 cell line, SRB assay, Chou Median Effective Dose equation, read-out: IC90
[11] = Homo sapiens, MCF7 cell line, SRB assay, Chou Median Effective Dose equation, read-out: IC50
[12] = Homo sapiens, MCF7 cell line, SRB assay, Chou Median Effective Dose equation, read-out: IC90
[13] = Homo sapiens, OVCAR-5 cell line, SRB assay, Chou Median Effective Dose equation, read-out: IC50
[14] = Homo sapiens, OVCAR-5 cell line, SRB assay, Chou Median Effective Dose equation, read-out: IC90
[15] = Homo sapiens, SF-295 cell line, SRB assay, Chou Median Effective Dose equation, read-out: IC50
[16] = Homo sapiens, SF-295 cell line, SRB assay, Chou Median Effective Dose equation, read-out: IC90
[17] = Homo sapiens, PC-3 cell line, SRB assay, Chou Median Effective Dose equation, read-out: IC50
[18] = Homo sapiens, PC-3 cell line, SRB assay, Chou Median Effective Dose equation, read-out: IC90
[19] = Homo sapiens, NCI-H23 cell line, SRB assay, Chou Median Effective Dose equation, read-out: IC50
[20] = Homo sapiens, NCI-H23 cell line, SRB assay, Chou Median Effective Dose equation, read-out: IC90

Work on `CCCC(=O)OCOC(=O)C=Cc1ccc(OC)c(OC)c1` [DiMeOCOMB, 3,4-Dimethyoxycinnamoyloxymethyl Butyrate] yielded an IC50 (LOX IMVI; LOX IMVI cell line, SRB assay, Chou Median Effective Dose equation, read-out: IC50) of 772 µM, an IC90 (LOX IMVI; LOX IMVI cell line, SRB assay, Chou Median Effective Dose equation, read-out: IC90) of 978 µM and an IC50 (HT29; HT29 cell line, SRB assay, Chou Median Effective Dose equation, read-out: IC50) of 406 µM. For the same molecule, the IC90 (HT29; HT29 cell line, SRB assay, Chou Median Effective Dose equation, read-out: IC90) was 798 µM, the “% CD11b Cells” value (HL-60 cells; concentration 50 μM (media control 12.2)) was 87.5% and the “% CD11b Cells” value (HL-60 cells; concentration 100 μM (media control 12.2)) was 88.6%. The “% CD11b Cells” value (HL-60 cells; concentration 203 μM (media control 12.2)) was 90.4%, the IC50 (NCI-H522; NCI-H522 cell line, SRB assay, Chou Median Effective Dose equation, read-out: IC50) was 752 µM and the IC90 (NCI-H522; NCI-H522 cell line, SRB assay, Chou Median Effective Dose equation, read-out: IC90) was 1370 µM. For the same molecule, the IC50 (HL-60; HL-60 cell line, SRB assay, Chou Median Effective Dose equation, read-out: IC50) was 203 µM, the IC90 (HL-60; HL-60 cell line, SRB assay, Chou Median Effective Dose equation, read-out: IC90) was 248 µM and the IC50 (MCF7; MCF7 cell line, SRB assay, Chou Median Effective Dose equation, read-out: IC50) was 301 µM. The IC90 (MCF7; MCF7 cell line, SRB assay, Chou Median Effective Dose equation, read-out: IC90) was 466 µM, the IC50 (OVCAR-5; OVCAR-5 cell line, SRB assay, Chou Median Effective Dose equation, read-out: IC50) was 1460 µM and the IC90 (OVCAR-5; OVCAR-5 cell line, SRB assay, Chou Median Effective Dose equation, read-out: IC90) was 1890 µM. It also gave an IC50 (SF-295; SF-295 cell line, SRB assay, Chou Median Effective Dose equation, read-out: IC50) of 764 µM, an IC90 (SF-295; SF-295 cell line, SRB assay, Chou Median Effective Dose equation, read-out: IC90) of 977 µM and an IC50 (PC-3; PC-3 cell line, SRB assay, Chou Median Effective Dose equation, read-out: IC50) of 1440 µM. The IC90 (PC-3; PC-3 cell line, SRB assay, Chou Median Effective Dose equation, read-out: IC90) was 1870 µM, the IC50 (CFPAC; [1]) was 308 µM and the IC90 (CFPAC; [2]) was 3570 µM. The IC50 (NCI-H23; NCI-H23 cell line, SRB assay, Chou Median Effective Dose equation, read-out: IC50) was 785 µM and the IC90 (NCI-H23; NCI-H23 cell line, SRB assay, Chou Median Effective Dose equation, read-out: IC90) was over 4000 µM.
For `CC(=Cc1ccccc1)C(=O)O` [MeCA, α-methylcinnamic acid, reference compound], the IC50 (LOX IMVI; [3]) was 3360 µM, the IC90 (LOX IMVI; [4]) was over 4000 µM and the IC50 (HT29; [5]) was 3960 µM. It also gave an IC90 (HT29; [6]) of over 4000 µM, an IC50 (NCI-H522; [7]) of 1980 µM and an IC90 (NCI-H522; [8]) of 3820 µM. It also gave an IC50 (HL-60; [9]) of 2600 µM, an IC90 (HL-60; [10]) of over 4000 µM and an IC50 (MCF7; [11]) of over 4000 µM. It also gave an IC90 (MCF7; [12]) of over 4000 µM, an IC50 (OVCAR-5; [13]) of 3730 µM and an IC90 (OVCAR-5; [14]) of over 4000 µM. The IC50 (SF-295; [15]) was over 4000 µM, the IC90 (SF-295; [16]) was over 4000 µM and the IC50 (PC-3; [17]) was over 4000 µM. For the same molecule, the IC90 (PC-3; [18]) was over 4000 µM, the IC50 (CFPAC; [1]) was 1940 µM and the IC90 (CFPAC; [2]) was over 4000 µM. The IC50 (NCI-H23; [19]) was 3270 µM and the IC90 (NCI-H23; [20]) was over 4000 µM.
`CCCC(=O)OCOC(=O)C=Cc1ccccc1` [COMB, Cinnamoyloxymethyl Butyrate] showed an IC50 (LOX IMVI; [3]) of 197 µM, an IC90 (LOX IMVI; [4]) of 1910 µM and an IC50 (HT29; [5]) of 349 µM. It also gave an IC90 (HT29; [6]) of 492 µM, an IC50 (NCI-H522; [7]) of 189 µM and an IC90 (NCI-H522; [8]) of 249 µM. For the same molecule, the IC50 (HL-60; [9]) was 443 µM, the IC90 (HL-60; [10]) was over 4000 µM and the IC50 (MCF7; [11]) was 196 µM. The IC90 (MCF7; [12]) was over 4000 µM, the IC50 (OVCAR-5; [13]) was 367 µM and the IC90 (OVCAR-5; [14]) was 500 µM. The IC50 (SF-295; [15]) was 197 µM, the IC90 (SF-295; [16]) was over 4000 µM and the IC50 (PC-3; [17]) was 203 µM. The IC90 (PC-3; [18]) was over 4000 µM, the IC50 (CFPAC; [1]) was 150 µM and the IC90 (CFPAC; [2]) was 237 µM. For the same molecule, the IC50 (NCI-H23; [19]) was 182 µM and the IC90 (NCI-H23; [20]) was 249 µM.
Work on `CC(Cc1ccccc1)C(=O)O` (centres unmarked) [MePPA, 2-methyl-3-phenylpropionic acid, reference compound] yielded an IC50 (LOX IMVI; Homo sapiens, LOX IMVI) of over 4000 µM, an IC90 (LOX IMVI; Homo sapiens, LOX IMVI) of over 4000 µM and an IC50 (HT29; Homo sapiens, HT-29) of over 4000 µM. The IC90 (HT29; Homo sapiens, HT-29) was over 4000 µM, the IC50 (NCI-H522; Homo sapiens, NCI-H522) was over 4000 µM and the IC90 (NCI-H522; Homo sapiens, NCI-H522) was over 4000 µM. For the same molecule, the IC50 (HL-60; Homo sapiens, HL-60) was over 4000 µM, the IC90 (HL-60; Homo sapiens, HL-60) was over 4000 µM and the IC50 (MCF7; Homo sapiens, MCF7) was over 4000 µM. For the same molecule, the IC90 (MCF7; Homo sapiens, MCF7) was over 4000 µM, the IC50 (OVCAR-5; Homo sapiens, OVCAR-5) was over 4000 µM and the IC90 (OVCAR-5; Homo sapiens, OVCAR-5) was over 4000 µM. It also gave an IC50 (SF-295; Homo sapiens, SF-295) of over 4000 µM, an IC90 (SF-295; Homo sapiens, SF-295) of over 4000 µM and an IC50 (PC-3; Homo sapiens, PC-3) of over 4000 µM. For the same molecule, the IC90 (PC-3; Homo sapiens, PC-3) was over 4000 µM, the IC50 (CFPAC) was 3540 µM and the IC90 (CFPAC) was over 4000 µM. For the same molecule, the IC50 (NCI-H23; Homo sapiens, NCI-H23) was over 4000 µM and the IC90 (NCI-H23; Homo sapiens, NCI-H23) was over 4000 µM.
